The values below come from paper PMC7196836, “Molecular analysis of the ribosome recycling factor ABCE1 bound to the 30S post‐splitting complex” (The EMBO Journal, 2020).

The target in this experiment is T1, ABCE1 (Saccharolobus solfataricus, UniProt Q980K5, L353Y).
T1 construct: gene SSO0287; recombinant in E. coli (pSA4 plasmid), C-terminal His6 tag; FeS cluster domain kept
Briefly: Malachite Green ATPase assay (phosphate release). It is filed as biochemical. The settings on record: 2 mM ATP, 2.5 mM MgCl2, 150 mM NaCl, Hepes pH 7.5, 80 °C; no ribosomes.

Consider `Nc1ncnc2c1ncn2[C@@H]1O[C@H](COP(=O)(O)OP(=O)(O)OP(=O)(O)O)[C@@H](O)[C@H]1O` [ATP], for which the “ATP turnover per ABCE1” value is on record as “ATPase activity of ABCE1^L353Y (Appendix Fig S3) were comparable to wild type”.
